What was measured:
[1] = test system: pfeik1 gene expression in P. falciparum 3D7; assay: Quantitative real-time PCR of pfeik1 expression; type: cell-based, Plasmodium falciparum; details: 100 nM melatonin, 4 h
Procedure: For these experiments, P. falciparum 3D7 culture was synchronized with 5% sorbitol and parasites collected in the three stages: ring (14 hours); trophozoite (30 hours); and schizont (44 hours), at 4% parasitemia. Parasites were treated with 100 nM Melatonin or 0.00005% ethanol (control) and left for 4 hours before RNA extraction with Trizol (Invitrogen). RNA purified with ionic exchange columns with DNAse using RNAse‐free DNAse set (Qiagen) and RNeasy Mini Kit (Qiagen) and quantified in a UV‐Vis NanoDrop 2000c (Thermo Scientific). Three independent experiments were performed in triplicates.
cDNA syntheses were performed using random primers and Superscript II reverse transcriptase (Invitrogen) according to the manufacturer’s protocol. SYBR Green (Applied Biosystems) was used in quantitative real‐time PCR on a 7300 Real‐Time PCR System (Applied Biosystems). Amplification was carried out as follow: on step 50°C for 2 min and 95°C for 10 min for enzyme activation followed by 40 cycles of 95°C for 0.15 min for denaturation and 60°C for 1 min for annealing/extension. The primers used were as follows: PF14_0423‐Fwd […] and PF14_0423‐Rvs […].
Changes in relative expression were determined by 2^‐ΔΔCt or transforming the threshold cycle in absolute number of mRNA. […]

[2] = test system: Plasmodium falciparum 3D7; assay: Effect of indole compounds in parasitemia (48 h), 3D7; type: cell-based; details: 3D7, 100 nM melatonin
Procedure: Red blood cells infected (iRBC) with 3D7 or PfeIK1^‐ (iRBC) with 1% initial parasitemia and 2% hematocrit were incubated with 500 nM of the synthetic indole compounds or 100 nM Melatonin for 48 hours at 37°C under mixture of gases. ^12 The control group received 0.0013% of solvent dimethyl sulfoxide (DMSO).
After 48 hours, iRBC were double‐stained ^34 with nucleic acid marker SYBR Green I (1X) and mitochondria marker, based on membrane potential, MitoTracker Deep Red (50 nM), and incubated for 20 minutes at 37°C.
Final parasitemia was obtained by flow cytometer using an Accuri C6 flow cytometer (Becton Dickinson), collecting 10^4 cells. Parasitemia was determined by dot plots using FlowJo 5 software.

## COc1ccc2[nH]cc(CCNC(C)=O)c2c1 [melatonin, N‐acetyl‐ 5‐methoxytryptamine]
[1]; ring stage
  decrease in pfeik1 expression compared to control: 40%
[1]; trophozoite and schizont stages
  pfeik1 expression vs solvent: no significant difference
[2]
  increase in parasitemia: approximately 10%
  parasitemia normalized to control, hormone only: 110%

Reference: paper PMC7539967, “The Plasmodium falciparum eIK1 kinase (PfeIK1) is central for melatonin synchronization in the human malaria parasite. Melatotosil blocks melatonin action on parasite cell cycle” (Journal of Pineal Research, 2020)
